Where two headings read alike, the source gives them in different places.
Experiments:
[1] = test system: MV4;11 cells; experiment: Cell viability assay (CellTiter-Glo) in MV4;11 cells, alone or with gilteritinib; type: cell-based; conditions: Homo sapiens, MV4-11, 72 h, MV4;11 cells, CellTiter-Glo, read-out: MV4
[2] = test system: MOLM-13 cells; experiment: Cell viability assay (CellTiter-Glo) in MOLM-13 cells, alone or with gilteritinib; type: cell-based; conditions: Homo sapiens, MOLM-13, 72 h, MOLM-13 cells, CellTiter-Glo
[3] = compound alone (without gilteritinib), three days, 11 IC50
[4] = with gilteritinib 10 nM, three days, 11 IC50 gilteritinib
[5] = compound alone (without gilteritinib), three days, read-out: MOLM-13 IC50
[6] = with gilteritinib 20 nM, three days, read-out: MOLM-13 IC50 gilteritinib
[7] = without gilteritinib, 3 days, 11 IC50
[8] = with 20 nM gilteritinib, 3 days, read-out: MOLM-13 IC50 gilteritinib
[9] = without gilteritinib, 3 days, read-out: MOLM-13 IC50
[10] = with 10 nM gilteritinib, 3 days, 11 IC50 gilteritinib

Compound | IC50 [1, 3] [nM] | IC50 [1, 4] [nM] | IC50 [2, 5] [nM] | IC50 [2, 6] [nM] | IC50 [1, 7] [nM] | IC50 [2, 8] [nM] | IC50 [2, 9] [nM] | IC50 [1, 10] [nM]
O=C1CCC(N2C(=O)c3ccc(NCCCCCC(=O)N4CCC(n5cc(-c6ccccn6)cn5)CC4)cc3C2=O)C(=O)N1 (stereo not drawn) [GS-053, 2-(2,6-Dioxopiperidin-3-yl)-5-((6-oxo-6-(4-(4-(pyridin-2-yl)-1H-pyrazol-1-yl)piperidin-1-yl)hexyl)amino)isoindoline-1,3-dione] | 10 to 100 | < 10 | 100 to 1000 | < 10 | – | – | – | –
O=C(CCC(F)(F)C(=O)N1CCC(n2cc(-c3cnc4cccc(Br)c4n3)cn2)CC1)NCc1ccc2c(c1)CN(C1CCC(=O)NC1=O)C2=O (stereo not drawn) [GS-054, 5-(4-(4-(8-Bromoquinoxalin-2-yl)-1H-pyrazol-1-yl)piperidin-1-yl)-N-((2-(2,6-dioxopiperidin-3-yl)-1-oxoisoindolin-5-yl)methyl)-4,4-difluoro-5-oxopentanamide] | < 10 | < 10 | 10 to 100 | < 10 | – | – | – | –
O=C1CCC(N2C(=O)c3ccc(NCCCCCC(=O)N4CCC(c5cnc6cccc(Br)c6n5)CC4)cc3C2=O)C(=O)N1 (stereo not drawn) [GS-060, 5-((6-(4-(8-Bromoquinoxalin-2-yl)piperidin-1-yl)-6-oxohexyl)amino)-2-(2,6-dioxopiperidin-3-yl)isoindoline-1,3-dione] | < 10 | < 10 | < 10 | < 10 | < 1 | 0.06 | 3.7 | –
O=C1CCC(N2C(=O)c3ccc(NCCCCCC(=O)c4ccc(-n5cccn5)cc4)cc3C2=O)C(=O)N1 (stereo not drawn) [GS-061, 5-((6-(4-(1H-Pyrazol-1-yl)phenyl)-6-oxohexyl)amino)-2-(2,6-dioxopiperidin-3-yl)isoindoline-1,3-dione] | > 1000 | 100 to 1000 | > 1000 | 100 to 1000 | – | – | – | –
O=C1CCC(N2C(=O)c3ccc(NCCCCCC(=O)N4CC(n5cc(-c6cnc7cccc(Br)c7n6)cn5)C4)cc3C2=O)C(=O)N1 (stereo not drawn) [GS-062, 5-((6-(3-(4-(8-Bromoquinoxalin-2-yl)-1H-pyrazol-1-yl)azetidin-1-yl)-6-oxohexyl)amino)-2-(2,6-dioxopiperidin-3-yl)isoindoline-1,3-dione] | – | – | – | – | 9410 | 72 | > 10000 | 1920
O=C1CCC(N2C(=O)c3ccc(NCCCCCC(=O)N4CCC(n5cc(N6CCC6)cn5)CC4)cc3C2=O)C(=O)N1 (stereo not drawn) [GS-063, 5-((6-(4-(4-(Azetidin-1-yl)-1H-pyrazol-1-yl)piperidin-1-yl)-6-oxohexyl)amino)-2-(2,6-dioxopiperidin-3-yl)isoindoline-1,3-dione] | – | – | – | – | > 10000 | 3680 | > 10000 | 8550

Now from value to compound:

IC50 [1, 3] [nM] | IC50 [1, 4] [nM] | IC50 [2, 5] [nM] | IC50 [2, 6] [nM] | IC50 [1, 7] [nM] | IC50 [2, 8] [nM] | IC50 [2, 9] [nM] | IC50 [1, 10] [nM] | Compound
> 1000 | 100 to 1000 | 100 to 1000 | > 1000 | – | – | – | – | CN(Cc1ccc2c(c1)CN(C1CCC(=O)NC1=O)C2=O)C(=O)CCCC(=O)N1CCC(n2cc(-c3cnc4cccc(Br)c4n3)cn2)CC1 (stereo not drawn) [GS-058, 5-(4-(4-(8-Bromoquinoxalin-2-yl)-1H-pyrazol-1-yl)piperidin-1-yl)-N-((2-(2,6-dioxopiperidin-3-yl)-1-oxoisoindolin-5-yl)methyl)-N-methyl-5-oxopentanamide]
– | – | – | – | 349 | 600 | 520 | 27 | O=C1CCC(N2C(=O)c3ccc(NCCCCCC(=O)N4CCC(n5cc(C6CC6)cn5)CC4)cc3C2=O)C(=O)N1 (stereo not drawn) [GS-064, 5-((6-(4-(4-Cyclopropyl-1H-pyrazol-1-yl)piperidin-1-yl)-6-oxohexyl)amino)-2-(2,6-dioxopiperidin-3-yl)isoindoline-1,3-dione]
> 1000 | > 1000 | > 1000 | > 1000 | – | – | – | – | Cc1cccc(-c2ccn([C@H]3C[C@H](CNc4ccc5c(c4)C(=O)N(C4CCC(=O)NC4=O)C5=O)C3)n2)n1 (stereo partly drawn) [GS-065, 2-(2,6-Dioxopiperidin-3-yl)-5-(((trans-3-(3-(6-methylpyridin-2-yl)-1H-pyrazol-1-yl)cyclobutyl)methyl)amino)isoindoline-1,3-dione]

From patent publication US20240050428A1 (Cullgen (Shanghai), Inc., priority 2020, published 2024)
